The test deals with T1, human ENT1 (Homo sapiens, UniProt Q99808).
T1 sequence (Q99808 1-456): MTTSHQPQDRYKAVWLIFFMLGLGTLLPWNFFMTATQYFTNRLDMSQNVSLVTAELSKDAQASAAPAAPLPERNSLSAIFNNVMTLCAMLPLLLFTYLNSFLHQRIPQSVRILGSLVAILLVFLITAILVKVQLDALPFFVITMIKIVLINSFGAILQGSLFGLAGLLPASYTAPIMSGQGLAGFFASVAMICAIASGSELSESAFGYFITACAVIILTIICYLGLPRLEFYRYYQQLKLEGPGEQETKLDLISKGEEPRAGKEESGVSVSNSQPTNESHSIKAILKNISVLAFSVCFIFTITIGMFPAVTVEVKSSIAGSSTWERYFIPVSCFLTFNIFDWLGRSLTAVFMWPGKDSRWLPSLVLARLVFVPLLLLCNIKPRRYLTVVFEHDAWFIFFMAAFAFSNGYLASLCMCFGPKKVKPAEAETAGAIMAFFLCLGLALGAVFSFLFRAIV
The test can be described thus: ENT1 binding assay (competition with Sahenta-DY647 on JAR cells). The settings on record: binned IC50. Also on record: JAR cells expressing ENT1 were bought from ATCC; host or cells: JAR cells. On the procedure: Purpose. […] By measuring the fluorescence at the end of the assay we could assess the binding potency of the compounds of the present invention.
JAR cells were resuspended in the described buffer. Compounds of the present invention and Sahenta-DY647 were diluted 200× in the described buffer.
The total volume of the reaction was 100 μL (50 μL of cells, 25 μL of the compounds of the present invention and 25 μL of Sahenta-DY647) in a 96 well plate, U-bottom (Greiner®, #650-180). The plates were washed 2× by centrifugation (4 min, 400 rcf at 4° C.) in the same buffer.
Turning to `COCCN(CCOC)c1nc(N2CCC(OC)CC2)c2nc(N(CCO)CCCS(C)(=O)=O)nc(N3CCN(C)C(=O)C3)c2n1` [Compound 280, 4-(6-(bis(2-methoxyethyl)amino)-2-((2-hydroxyethyl)(3-(methylsulfonyl)propyl)amino)-8-(4-methoxypiperidin-1-yl)pyrimido[5,4-d]pyrimidin-4-yl)-1-methylpiperazin-2-one], the IC50 fell in the range of 0.1 to 0.5 µM. The figure for `CCCNc1nc(N(CCOC)CCOC)nc2c(N3CCN(c4ncn(C)n4)CC3)nc(N(CCOC)CCOC)nc12` [Compound 218, N2,N2,N6,N6-tetrakis(2-methoxyethyl)-8-(4-(1-methyl-1H-1,2,4-triazol-3-yl)piperazin-1-yl)-N4-propylpyrimido[5,4-d]pyrimidine-2,4,6-triamine] is 0.1 to 0.5 µM; for `COCCN(CCOC)c1nc(N2CCC(OC)CC2)c2nc(N(CCOC)CCOC)nc(OCc3cc(OC)cc(OC)c3)c2n1` [Compound 152, 4-((3,5-dimethoxybenzyl)oxy)-N2,N2,N6,N6-tetrakis(2-methoxyethyl)-8-(4-methoxypiperidin-1-yl)pyrimido[5,4-d]pyrimidine-2,6-diamine] it is under 0.1 µM; for `COCCN(CCOC)c1nc(N2CCN(C)C(=O)C2)c2nc(N(CCOC)CCOC)nc(NCc3cccc(Cl)c3)c2n1` [Compound 208, 4-(2,6-bis(bis(2-methoxyethyl)amino)-8-((3-chlorobenzyl)amino)pyrimido[5,4-d]pyrimidin-4-yl)-1-methylpiperazin-2-one] it is under 0.1 µM. With `COCCCN(CCCOC)c1nc(N2CCC(OC)CC2)c2nc(N(CCCO)CCCO)nc(N3CCN(C)C(=O)C3)c2n1` [Compound 329, 4-(2-(bis(3-hydroxypropyl)amino)-6-(bis(3-methoxypropyl)amino)-8-(4-methoxypiperidin-1-yl)pyrimido[5,4-d]pyrimidin-4-yl)-1-methylpiperazin-2-one], the IC50 was under 0.1 µM. For `COCCN(CCOC)c1nc(N2CCC(OC)CC2)c2nc(N(CCOC)CCOC)nc(NCCc3ccncc3)c2n1` [Compound 64, N2,N2,N6,N6-tetrakis(2-methoxyethyl)-8-(4-methoxypiperidin-1-yl)-N4-(2-(pyridin-4-yl)ethyl)pyrimido[5,4-d]pyrimidine-2,4,6-triamine] the value was 0.1 to 0.5 µM; for `COCCN(CCOC)c1nc(N2CC(=O)N(C)C(C)C2)c2nc(N(CCO)CCO)nc(N3CCC(OC)CC3)c2n1` (centres unmarked) [Compound 310, 4-(6-(bis(2-hydroxyethyl)amino)-2-(bis(2-methoxyethyl)amino)-8-(4-methoxypiperidin-1-yl)pyrimido[5,4-d]pyrimidin-4-yl)-1,6-dimethylpiperazin-2-one], 0.5 to 1 µM. For `COCCN(CCOC)c1nc(N2CCC(OC)CC2)c2nc(N(CCO)CCO)nc(N3CCc4oc(C)nc4C3)c2n1` [Compound 322, 2,2′-((6-(bis(2-methoxyethyl)amino)-8-(4-methoxypiperidin-1-yl)-4-(2-methyl-6,7-dihydrooxazolo[4,5-c]pyridin-5(4H)-yl)pyrimido[5,4-d]pyrimidin-2-yl)azanediyl)bis(ethan-1-ol)] the value was 0.1 to 0.5 µM; for `COCCN(CCOC)c1nc(N2CCN(C)C(=O)C2)c2nc(N(CCOC)CCOC)nc(N(C)Cc3ccccc3)c2n1` [Compound 230, 4-(8-(benzyl(methyl)amino)-2,6-bis(bis(2-methoxyethyl)amino)pyrimido[5,4-d]pyrimidin-4-yl)-1-methylpiperazin-2-one], under 0.1 µM. With `COCCN(CCOC)c1nc(N2CCN(c3ncn(C)n3)CC2)c2nc(N(CCOC)CCOC)nc(N(C)Cc3cccc(F)c3)c2n1` [Compound 241, N4-(3-fluorobenzyl)-N2,N2,N6,N6-tetrakis(2-methoxyethyl)-N4-methyl-8-(4-(1-methyl-1H-1,2,4-triazol-3-yl)piperazin-1-yl)pyrimido[5,4-d]pyrimidine-2,4,6-triamine], the IC50 was 0.1 to 0.5 µM. For `COCCN(CCOC)c1nc(N2CCC(OC)CC2)c2nc(N(CCOC)CCOC)nc(N3CCCC3)c2n1` [Compound 89, N2,N2,N6,N6-tetrakis(2-methoxyethyl)-4-(4-methoxypiperidin-1-yl)-8-(pyrrolidin-1-yl)pyrimido[5,4-d]pyrimidine-2,6-diamine] the value was 0.1 to 0.5 µM; for `COCCN(CCOC)c1nc(N2CCC(OC)CC2)c2nc(N(CCO)CCO)nc(N3CC(=O)N(C)C(C)C3)c2n1` (centres unmarked) [Compound 309, 4-(2-(bis(2-hydroxyethyl)amino)-6-(bis(2-methoxyethyl)amino)-8-(4-methoxypiperidin-1-yl)pyrimido[5,4-d]pyrimidin-4-yl)-1,6-dimethylpiperazin-2-one], 0.1 to 0.5 µM.

For the compound `COCCN(CCOC)c1nc(N2CCC(OC)CC2)c2nc(N(CCOC)CCOC)nc(NCc3ccc(C)o3)c2n1` [Compound 161, N2,N2,N6,N6-tetrakis(2-methoxyethyl)-8-(4-methoxypiperidin-1-yl)-N4-((5-methylfuran-2-yl)methyl)pyrimido[5,4-d]pyrimidine-2,4,6-triamine], the IC50 is 0.1 to 0.5 µM. The figure for `COCCN(CCOC)c1nc(N2CCn3nc(C)nc3C2)c2nc(N(CCO)CCO)nc(N3CCC(OC)CC3)c2n1` [Compound 323, 2,2′-((6-(bis(2-methoxyethyl)amino)-4-(4-methoxypiperidin-1-yl)-8-(2-methyl-5,6-dihydro-[1,2,4]triazolo[1,5-a]pyrazin-7(8H)-yl)pyrimido[5,4-d]pyrimidin-2-yl)azanediyl)bis(ethan-1-ol)] is 0.1 to 0.5 µM; for `COCCN(CCOC)c1nc(N2CCN(C)C(=O)C2)c2nc(N(CCOC)CCOC)nc(N(C)Cc3cccc(C#N)c3)c2n1` [Compound 237, 3-(((2,6-bis(bis(2-methoxyethyl)amino)-8-(4-methyl-3-oxopiperazin-1-yl)pyrimido[5,4-d]pyrimidin-4-yl)(methyl)amino)methyl)benzonitrile] it is under 0.1 µM.

Regarding `COCCN(CCOC)c1nc(N2CC(C)(C)C2)c2nc(N(CCOC)CCOC)nc(N3CCC(OC)CC3)c2n1` [Compound 100, 4-(3,3-dimethylazetidin-1-yl)-N2,N2,N6,N6-tetrakis(2-methoxyethyl)-8-(4-methoxypiperidin-1-yl)pyrimido[5,4-d]pyrimidine-2,6-diamine], the IC50 was 0.1 to 0.5 µM. Compound `COCCN(CCOC)c1nc(N2CCN(c3ncn(C)n3)CC2)c2nc(N(CCOC)CCOC)nc(N(C)Cc3cccc(S(C)(=O)=O)c3)c2n1` [Compound 246, N2,N2,N6,N6-tetrakis(2-methoxyethyl)-N4-methyl-8-(4-(1-methyl-1H-1,2,4-triazol-3-yl)piperazin-1-yl)-N4-(3-(methylsulfonyl)benzyl)pyrimido[5,4-d]pyrimidine-2,4,6-triamine] came in with an IC50 of 0.5 to 1 µM. For `COCCN(CCOC)c1nc(N2CCC(OC)CC2)c2nc(N(CCOC)CCOC)nc(NCCc3cccnc3)c2n1` [Compound 63, N2,N2,N6,N6-tetrakis(2-methoxyethyl)-8-(4-methoxypiperidin-1-yl)-N4-(2-(pyridin-3-yl)ethyl)pyrimido[5,4-d]pyrimidine-2,4,6-triamine] the value was 0.1 to 0.5 µM; for `COCCN(CCOC)c1nc(N2CCOC(C)C2)c2nc(N(CCOC)CCOC)nc(N3CCC(OC)CC3)c2n1` (centres unmarked) [Compound 87, N2,N2,N6,N6-tetrakis(2-methoxyethyl)-4-(4-methoxypiperidin-1-yl)-8-(2-methylmorpholino)pyrimido[5,4-d]pyrimidine-2,6-diamine], 0.1 to 0.5 µM.

`COCCN(CCOC)c1nc(N2CCN(c3ncn(C)n3)CC2)c2nc(N(CCOC)CCOC)nc(NCc3cccc(C(N)=O)c3)c2n1` [Compound 229, 3-(((2,6-bis(bis(2-methoxyethyl)amino)-8-(4-(1-methyl-1H-1,2,4-triazol-3-yl)piperazin-1-yl)pyrimido[5,4-d]pyrimidin-4-yl)amino)methyl)benzamide] gave an IC50 of 0.1 to 0.5 µM.

Take `COCCN(CCOC)c1nc(N2CCC(OC)CC2)c2nc(N3CCc4[nH]cnc4C3)nc(N3CCN(C)C(=O)C3)c2n1` [Compound 290, 4-(6-(bis(2-methoxyethyl)amino)-8-(4-methoxypiperidin-1-yl)-2-(1,4,6,7-tetrahydro-5H-imidazo[4,5-c]pyridin-5-yl)pyrimido[5,4-d]pyrimidin-4-yl)-1-methylpiperazin-2-one]: the IC50 was 0.5 to 1 µM.

For the compound `COCCN(CCOC)c1nc(N2CCC(OC)CC2)c2nc(N(CCO)CCN(C)C(C)=O)nc(N3CCN(C)C(=O)C3)c2n1` [Compound 277, N-(2-((6-(bis(2-methoxyethyl)amino)-8-(4-methoxypiperidin-1-yl)-4-(4-methyl-3-oxopiperazin-1-yl)pyrimido[5,4-d]pyrimidin-2-yl)(2-hydroxyethyl)amino)ethyl)-N-methylacetamide], the half-inhibitory concentration (IC50) lay in the range of 0.1 to 0.5 µM. The figure for `COCCN(CCOC)c1nc(N2CCC(F)(F)CC2)c2nc(N(CCOC)CCOC)nc(N3CCC(OC)CC3)c2n1` [Compound 200, 4-(4,4-difluoropiperidin-1-yl)-N2,N2,N6,N6-tetrakis(2-methoxyethyl)-8-(4-methoxypiperidin-1-yl)pyrimido[5,4-d]pyrimidine-2,6-diamine] is under 0.1 µM.
